{
  "source": "patent US20100172957A1",
  "about": "“EFLUCIMIBE MEDICAMENTS FOR PREVENTING/TREATING A DISEASE DUE TO SEBACEOUS GLAND DYSFUNCTION IN HUMANS OR ANIMALS” (GALDERMA RESEARCH & DEVELOPMENT, priority 2007, published 2010)",
  "origin": "cited, not measured here",
  "tested_on": "sebum production",
  "details": "current treatment, background statement",
  "data": [
    {"smiles": "CC1=C(/C=C/C(C)=C/C=C/C(C)=C\\C(=O)O)C(C)(C)CCC1", "note": "[isotretinoin]", "values": [
      {"measurement": "decrease of sebum production", "value": "~90", "unit": "%"}
    ]}
  ]
}
